Here are results for 14 compounds from ChEMBL document CHEMBL3351320, “Discovery of novel tetrahydroisoquinoline derivatives as orally active N-type calcium channel blockers with high selectivity for hERG potassium channels” (Bioorg Med Chem, 2014).

Data set [1] can be described thus: Inhibition of N-type calcium channel in human IMR-32 cells assessed as intracellular calcium concentration by FLIPR. The format is cell-based. Background: Calcium flux is commonly read through the fluorescence of an indicator in the cells.
The subject of data set [2] is Rattus norvegicus. Description: Antiallodynic activity in Sprague-Dawley rat spinal nerve ligation model of neuropathic pain assessed as reduction in mechanical allodynia at 3 to 30 mg/kg, po. It is filed as functional, organism-based.
Data set [3] in a line: Inhibition of N-type calcium channel in human IMR-32 cells under holding potential at -70 mV inactivated state by whole cell patch-clamp electrophysiological method.
In data set [4] the test system is Rattus norvegicus. The data set is described as follows: Antiallodynic activity in Sprague-Dawley rat spinal nerve ligation model of neuropathic pain assessed as maximal reduction in mechanical allodynia at 30 mg/kg, po. It is filed as functional, organism-based. Details: dose 30 mg/kg.
Data set [5] is described as follows: Inhibition of N-type calcium channel in human IMR-32 cells under holding potential at -90 mV state-biased condition by whole cell patch-clamp electrophysiological method.
Data set [6] deals with Voltage-gated inwardly rectifying potassium channel KCNH2 (Homo sapiens, UniProt Q12809). Description: Inhibition of human ERG expressed in CHO cells by Rb efflux assay.
Another data set has as its system IMR-32. Description: Selectivity ratio of IC50 for human ERG to IC50 for N-type calcium channel in human IMR-32 cells. It is filed as cell-based.
Another data set deals with hERG (KCNH2) (Homo sapiens, UniProt Q12809). The data set is described as follows: Inhibition of human ERG expressed in CHO cells at 10 uM by Rb efflux assay. The format is cell-based. The settings on record: CHO cells expressing human ERG.
Data set [7] can be described thus: Aqueous solubility in Japanese Pharmacopoeia at pH 6.8. The format is physicochemical. The settings on record: aqueous Japanese Pharmacopoeia medium, pH 6.8, pH 6.8.
Data set [8] is described as follows: Aqueous solubility in Japanese Pharmacopoeia at pH 1.2. It is filed as physicochemical. The settings on record: aqueous Japanese Pharmacopoeia medium, pH 1.2, pH 1.2.
The target of a further data set is Cytochrome P450 2D6 (Homo sapiens, UniProt P10635). The data set is described as follows: Inhibition of human recombinant CYP2D6 after 30 mins.
A further data set deals with T1, Cytochrome P450 1A2 (Homo sapiens, UniProt P05177).
T1 sequence (P05177 whole entry): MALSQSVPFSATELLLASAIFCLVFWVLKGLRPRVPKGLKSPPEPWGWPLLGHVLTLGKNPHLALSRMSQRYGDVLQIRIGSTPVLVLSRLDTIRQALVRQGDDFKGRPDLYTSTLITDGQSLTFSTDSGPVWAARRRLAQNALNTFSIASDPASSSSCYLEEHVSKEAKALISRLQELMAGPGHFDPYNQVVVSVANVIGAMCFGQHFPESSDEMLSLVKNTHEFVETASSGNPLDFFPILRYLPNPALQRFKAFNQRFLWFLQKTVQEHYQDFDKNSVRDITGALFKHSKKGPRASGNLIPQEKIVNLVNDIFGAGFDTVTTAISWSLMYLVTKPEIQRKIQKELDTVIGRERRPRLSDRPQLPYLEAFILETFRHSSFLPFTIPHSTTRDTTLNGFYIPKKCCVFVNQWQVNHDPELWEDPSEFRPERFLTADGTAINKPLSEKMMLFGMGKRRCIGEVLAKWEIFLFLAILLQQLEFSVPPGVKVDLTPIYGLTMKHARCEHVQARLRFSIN
Description: Inhibition of human recombinant CYP1A2 after 15 mins.

Another data set concerns the target Cytochrome P450 2C9 (Homo sapiens, UniProt P11712). The data set is described as follows: Inhibition of human recombinant CYP2C9 after 45 mins.
The target in the next data set is CYP3A4 (Homo sapiens, UniProt P08684). The data set is described as follows: Inhibition of CYP3A4 in human liver microsomes assessed as residual activity assessed as residual activity using midazolam as substrate preincubated for 30 mins by LC/MS/MS analysis. The settings on record: probe midazolam. In general terms: Liver microsomes are a subcellular fraction often used to study metabolism.

In a further data set the target is Cytochrome P450 2C19 (Homo sapiens, UniProt P33261). The data set is described as follows: Inhibition of human recombinant CYP2C19 after 30 mins.

Calls of active or inactive are those of the source. The calls are words filed in the database; no cut-off is given here.

Voltage-gated inwardly rectifying potassium channel KCNH2, sequence (Q12809 whole entry): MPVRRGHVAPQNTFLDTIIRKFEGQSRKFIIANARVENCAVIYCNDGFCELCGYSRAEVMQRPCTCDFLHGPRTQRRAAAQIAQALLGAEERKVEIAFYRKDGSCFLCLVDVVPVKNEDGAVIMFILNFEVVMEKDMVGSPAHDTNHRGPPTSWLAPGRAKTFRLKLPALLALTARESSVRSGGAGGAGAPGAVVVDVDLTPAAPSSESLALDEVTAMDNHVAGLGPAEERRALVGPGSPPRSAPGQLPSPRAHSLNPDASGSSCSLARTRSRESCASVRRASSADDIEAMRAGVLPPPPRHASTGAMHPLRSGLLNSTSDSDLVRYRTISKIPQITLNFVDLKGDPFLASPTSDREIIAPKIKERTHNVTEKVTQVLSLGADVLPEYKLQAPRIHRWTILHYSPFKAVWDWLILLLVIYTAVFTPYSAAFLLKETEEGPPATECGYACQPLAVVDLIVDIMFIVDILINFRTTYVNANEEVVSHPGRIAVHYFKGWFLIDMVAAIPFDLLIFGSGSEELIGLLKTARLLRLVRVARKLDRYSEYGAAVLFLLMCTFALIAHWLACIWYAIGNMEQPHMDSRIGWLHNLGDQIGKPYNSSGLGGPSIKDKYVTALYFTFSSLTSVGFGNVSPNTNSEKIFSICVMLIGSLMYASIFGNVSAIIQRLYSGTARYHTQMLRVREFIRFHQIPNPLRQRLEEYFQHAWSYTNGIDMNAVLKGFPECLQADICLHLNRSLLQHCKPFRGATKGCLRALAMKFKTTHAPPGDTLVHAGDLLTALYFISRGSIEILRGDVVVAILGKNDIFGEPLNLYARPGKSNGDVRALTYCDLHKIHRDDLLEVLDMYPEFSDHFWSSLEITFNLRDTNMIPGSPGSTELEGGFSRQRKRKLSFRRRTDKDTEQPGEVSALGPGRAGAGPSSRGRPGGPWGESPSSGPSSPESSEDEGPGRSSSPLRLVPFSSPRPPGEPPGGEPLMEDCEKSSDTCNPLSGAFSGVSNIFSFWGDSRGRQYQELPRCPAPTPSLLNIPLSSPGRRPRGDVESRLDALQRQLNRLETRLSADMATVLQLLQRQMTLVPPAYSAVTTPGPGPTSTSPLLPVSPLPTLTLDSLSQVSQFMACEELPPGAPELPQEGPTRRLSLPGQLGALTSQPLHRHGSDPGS
hERG (KCNH2), sequence (Q12809 whole entry): as above
CYP3A4, sequence (P08684 whole entry): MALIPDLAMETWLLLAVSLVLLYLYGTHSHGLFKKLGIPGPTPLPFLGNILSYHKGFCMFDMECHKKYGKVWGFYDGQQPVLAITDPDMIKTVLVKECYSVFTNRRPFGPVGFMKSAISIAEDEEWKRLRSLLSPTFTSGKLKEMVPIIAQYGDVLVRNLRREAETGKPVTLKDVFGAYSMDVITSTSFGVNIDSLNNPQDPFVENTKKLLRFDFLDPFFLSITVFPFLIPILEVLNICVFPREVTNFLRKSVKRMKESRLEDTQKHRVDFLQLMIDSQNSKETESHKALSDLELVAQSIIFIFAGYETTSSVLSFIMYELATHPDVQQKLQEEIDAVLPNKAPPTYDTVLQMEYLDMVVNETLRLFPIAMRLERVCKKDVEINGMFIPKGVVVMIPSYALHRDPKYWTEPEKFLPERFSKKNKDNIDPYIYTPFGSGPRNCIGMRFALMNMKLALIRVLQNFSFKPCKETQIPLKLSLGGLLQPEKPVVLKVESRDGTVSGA
Cytochrome P450 2D6, sequence (P10635 whole entry): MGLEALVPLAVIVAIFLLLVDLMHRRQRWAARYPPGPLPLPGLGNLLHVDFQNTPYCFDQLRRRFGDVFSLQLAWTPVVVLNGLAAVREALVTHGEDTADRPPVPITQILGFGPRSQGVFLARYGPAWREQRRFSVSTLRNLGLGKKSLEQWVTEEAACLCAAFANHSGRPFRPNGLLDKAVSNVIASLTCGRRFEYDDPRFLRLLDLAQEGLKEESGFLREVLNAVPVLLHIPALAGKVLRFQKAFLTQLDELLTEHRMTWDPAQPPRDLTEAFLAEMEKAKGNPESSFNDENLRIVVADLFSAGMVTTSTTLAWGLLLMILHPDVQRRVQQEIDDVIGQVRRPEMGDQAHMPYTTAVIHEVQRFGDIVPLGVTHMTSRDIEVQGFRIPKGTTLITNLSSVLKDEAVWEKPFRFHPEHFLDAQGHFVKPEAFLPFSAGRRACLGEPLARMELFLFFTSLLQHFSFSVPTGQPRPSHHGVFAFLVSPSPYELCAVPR
Cytochrome P450 2C9, sequence (P11712 whole entry): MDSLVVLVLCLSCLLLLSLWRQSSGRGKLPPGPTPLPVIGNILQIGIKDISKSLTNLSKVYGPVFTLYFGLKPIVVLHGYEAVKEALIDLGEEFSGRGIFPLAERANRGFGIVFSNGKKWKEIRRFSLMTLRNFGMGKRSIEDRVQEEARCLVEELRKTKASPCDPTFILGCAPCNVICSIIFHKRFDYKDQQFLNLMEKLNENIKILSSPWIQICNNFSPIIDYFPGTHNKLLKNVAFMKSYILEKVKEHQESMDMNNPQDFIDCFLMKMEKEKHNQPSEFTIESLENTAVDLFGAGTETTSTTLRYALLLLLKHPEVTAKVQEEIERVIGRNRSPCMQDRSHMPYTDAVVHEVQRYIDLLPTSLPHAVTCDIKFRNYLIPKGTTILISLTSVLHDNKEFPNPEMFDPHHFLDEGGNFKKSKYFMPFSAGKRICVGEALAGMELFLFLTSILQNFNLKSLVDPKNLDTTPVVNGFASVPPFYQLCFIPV
Cytochrome P450 2C19, sequence (P33261 whole entry): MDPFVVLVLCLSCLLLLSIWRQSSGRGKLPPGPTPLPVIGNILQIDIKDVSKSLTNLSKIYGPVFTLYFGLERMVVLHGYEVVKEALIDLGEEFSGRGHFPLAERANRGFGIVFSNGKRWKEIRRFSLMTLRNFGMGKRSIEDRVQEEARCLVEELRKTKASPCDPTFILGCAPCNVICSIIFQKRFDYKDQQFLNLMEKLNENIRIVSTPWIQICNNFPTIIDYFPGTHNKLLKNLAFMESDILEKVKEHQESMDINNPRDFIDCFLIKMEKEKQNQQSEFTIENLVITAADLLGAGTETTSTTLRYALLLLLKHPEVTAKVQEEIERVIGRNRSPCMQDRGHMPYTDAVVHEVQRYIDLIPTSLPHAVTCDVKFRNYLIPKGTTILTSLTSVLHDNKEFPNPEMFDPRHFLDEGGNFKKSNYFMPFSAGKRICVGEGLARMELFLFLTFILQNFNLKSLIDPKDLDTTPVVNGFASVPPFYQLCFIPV

For the compound `O=C(CNCCc1c(Cl)cccc1Cl)N1CCc2ccccc2C1C1CCCCC1` (stereo unspecified), the IC50 (in general, the concentration at which inhibition is half-maximal) in data set [1] amounted to 2400 nM.

As for `O=C(CNCC1(O)CCCCC1)N1CCc2ccccc2[C@@H]1C1CCCCC1`, the inhibition result in the data set with Rattus norvegicus [2] and in the data set on Rattus norvegicus [4] was “Active” throughout. Also, the IC50 in data set [3] stood at 1700 nM; in data set [5] it was 12700 nM; in data set [1], 1000 nM.

`O=C(CNCC1(O)CCCC1)N1CCc2ccccc2C1C1CCCCC1` (stereo unspecified): the figures for the IC50 in data set [6] and in data set [1] were 78600 nM and 2800 nM, respectively. Further, the Ratio IC50 in the data set with IMR-32 was 28.1.

As for `O=C(O)c1ccc(CCNCC(=O)N2CCc3ccccc3C2C2CCCCC2)cc1` (stereo unspecified), at 10 µM the inhibition against hERG (KCNH2) was 9%. Also, the IC50 in data set [1] is > 10000 nM.

In the case of `COC(=O)c1ccc(CCNCC(=O)N2CCc3ccccc3C2C2CCCCC2)cc1` (stereo unspecified), the inhibition – broadly, the drop in the measured response relative to a control, in per cent – at 10 µM against hERG (KCNH2) worked out at 71.7%. Further, the IC50 in [1] came out at 2300 nM.

With `COc1cc(CN2CCN(CCCCCC(c3ccc(F)cc3)c3ccc(F)cc3)CC2)cc(OC)c1OC`, the IC50 in data set [6] was 3400 nM; in data set [1] it was 1100 nM. Besides, the solubility (as a rule, the concentration that dissolves in the medium under given conditions) in data set [7] is < 1 µM; in data set [8], > 100 µM.

`O=C(CNCCc1ccccc1O)N1CCc2ccccc2C1C1CCCCC1` (stereo unspecified) gave an inhibition at 10 µM against hERG (KCNH2) of 54.4%. For the same compound, in data set [1], the IC50 was 3000 nM.

On to `O=C(CNCC1CCCCC1)N1CCc2ccccc2C1C1CCCCC1` (stereo unspecified), for which the IC50 in [6] worked out at 26000 nM; in [1], 1300 nM. The Ratio IC50 in the data set on IMR-32 was 20.

Consider `COc1c(OC(C)(C)C)cc(CN2CC(=O)N(CCCCCC(c3ccc(F)cc3)c3ccc(F)cc3)CC2=O)cc1OC(C)(C)C`, for which the values for the concentration for half-maximal inhibition (IC50) in [6] and in data set [1] were > 100000 nM and 430 nM, respectively. The solubility in [7] and in data set [8] was < 1 µM each time.

For the compound `O=C(CNCC1(O)CCCCCC1)N1CCc2ccccc2C1C1CCCCC1` (stereo unspecified), the IC50 in data set [6] was found to be 50100 nM; in data set [1] it was 2600 nM. The Ratio IC50 in the data set with IMR-32 was determined as 19.6.

As to `COc1ccccc1CCNCC(=O)N1CCc2ccccc2C1C1CCCCC1` (stereo unspecified), the solubility in [7] and in data set [8] was > 100 µM throughout. The IC50 is 370 nM on Cytochrome P450 2D6; 26000 nM on Cytochrome P450 1A2; 4800 nM at Cytochrome P450 2C9; 3000 nM on Cytochrome P450 2C19; 600 nM in [1]. In addition, the activity at 30 min at CYP3A4 was determined as 53%.

Take `O=C(CNCCC1(O)CCCCC1)N1CCc2ccccc2C1C1CCCCC1` (stereo unspecified): in [1], the IC50 is 1700 nM.

Consider `O=C(CNCC1(O)CCCCC1)N1CCc2ccccc2[C@H]1C1CCCCC1`, for which the IC50 in [1] was found to be 1500 nM.

For `O=C(CNCCc1ccccc1)N1CCc2ccccc2C1C1CCCCC1` (stereo unspecified), 10 µM produced 57.8% inhibition against hERG (KCNH2). Further, the IC50 in data set [1] came to 1300 nM.
